Assay results: publication PMC9067978, “Design, synthesis, and molecular docking studies of novel pomalidomide-based PROTACs as potential anti-cancer agents targeting EGFR^WT and EGFR^T790M” (Journal of Enzyme Inhibition and Medicinal Chemistry, 2022)
Entries after “also recorded” stand apart in the source; their conditions may differ.

Tests used:
[1] = biological target: T1, EGFR^WT (Homo sapiens, UniProt P00533); experiment: EGFR^WT kinase inhibitory assay (HTRF); type: biochemical; conditions: ATP 1.65 µM, mean ± S.D of three experiments
T1 construct: purchased Sigma
Protocol: This test used HTRF[44] assay with EGFR^WT and EGFR^T790M (Sigma). For the first 5 minutes, the evaluated compounds were incubated with EGFR^WT and/or EGFR^T790M and their substrates in the enzymatic buffer. […] The assay was performed at 37 °C for 30 minutes. The addition of EDTA-containing detection reagents halted the process. After one hour detection period, GraphPad Prism 5.0 was used to calculate the IC50 values. For each concentration, three separate trials were carried out.

[2] = system: Akt phosphorylation; experiment: Western blotting, Akt phosphorylation in A549 cells; type: cell-based, human; conditions: A549 cells, 0.1, 0.3 and 1 µM, erlotinib for comparison
Protocol: (§1) At a concentration of 100 nM, the time-dependent degradation activities of compounds 15–21 were also examined (Figure 5(A)).
(§2) Figure 5. (A) EGFR time-dependent degradation by compound 16 in A549 cell lines. Cells were treated with100 nM of 15–21 for indicated time points. Western blotting was used to evaluate EGFR protein, and densitometry was used to measure EGFR degradation, which was adjusted to the density of β-actin protein (n ¼2). (B) Compounds 15 and 16 have EGFR degradation and phosphorylation inhibitory action in A549 cells. The cells were exposed to concentrations of 0.1, 0.3, and 1 µM. Erlotinib were utilised for comparison. […]
(§3) Cells were seeded in 6-well plates at 1 × 10^6 per well, incubated at 37 °C with 5% CO2 for 24 h before drug exposure. […] The results were detected by an enhanced chemiluminescence system (Mill-pore). […]

[3] = system: MCF-7; experiment: DNA-flow cytometric cell cycle analysis, MCF-7; type: cell-based, human; conditions: 3.92 µM, 24 hours
Protocol: Then, the influence of compound 16 on the cell cycle profile was then investigated.
The cells that had been tested were then trypsinized and washed in sterilised phosphate buffer saline (PBS). The collected cells were fixed with cold ethanol (100%, 1.5 ml). According to the manufacturer’s instructions, a Cycle TESTTM PLUS DNA Reagent Kit was used to dye the cells (BD Biosciences, San Jose, CA). A flow cytometer was used to assess cell-cycle distribution.[52]

[4] = system: HCT-116; experiment: Annexin V/propidium iodide apoptosis assay, HCT-116; type: cell-based, human; conditions: 3.32 µM, 24 hours
Protocol: The double staining Annexin V/propidium iodide technique was performed to assess the mechanism of cell death and apoptosis-inducing activity.[46] […] As shown in (Figure 7 (A and B).
The negative control was chosen to be DMSO. The cells were then collected and washed twice in PBS. The cells were separated using centrifugation. An apoptosis detection kit (BD Biosciences, SanJose, CA) was used in this investigation. Following the manufacturer’s instructions, the cells were dyed with Annexin V-FITC and propidium iodide (PI) in the binding buffer for 20 minutes at 37 °C in the darkness. A flow cytometer was used to assess the binding of Annexin V-FITC and PI. The frequencies in all quadrants were investigated using the Flowjo program.[53]

[5] = system: EGFR phosphorylation; experiment: Western blotting, EGFR phosphorylation in A549 cells; type: cell-based, human; conditions: A549 cells, 0.1, 0.3 and 1 µM, erlotinib for comparison
Protocol: as §1, §2, §3

T1 sequence (P00533 25-1210): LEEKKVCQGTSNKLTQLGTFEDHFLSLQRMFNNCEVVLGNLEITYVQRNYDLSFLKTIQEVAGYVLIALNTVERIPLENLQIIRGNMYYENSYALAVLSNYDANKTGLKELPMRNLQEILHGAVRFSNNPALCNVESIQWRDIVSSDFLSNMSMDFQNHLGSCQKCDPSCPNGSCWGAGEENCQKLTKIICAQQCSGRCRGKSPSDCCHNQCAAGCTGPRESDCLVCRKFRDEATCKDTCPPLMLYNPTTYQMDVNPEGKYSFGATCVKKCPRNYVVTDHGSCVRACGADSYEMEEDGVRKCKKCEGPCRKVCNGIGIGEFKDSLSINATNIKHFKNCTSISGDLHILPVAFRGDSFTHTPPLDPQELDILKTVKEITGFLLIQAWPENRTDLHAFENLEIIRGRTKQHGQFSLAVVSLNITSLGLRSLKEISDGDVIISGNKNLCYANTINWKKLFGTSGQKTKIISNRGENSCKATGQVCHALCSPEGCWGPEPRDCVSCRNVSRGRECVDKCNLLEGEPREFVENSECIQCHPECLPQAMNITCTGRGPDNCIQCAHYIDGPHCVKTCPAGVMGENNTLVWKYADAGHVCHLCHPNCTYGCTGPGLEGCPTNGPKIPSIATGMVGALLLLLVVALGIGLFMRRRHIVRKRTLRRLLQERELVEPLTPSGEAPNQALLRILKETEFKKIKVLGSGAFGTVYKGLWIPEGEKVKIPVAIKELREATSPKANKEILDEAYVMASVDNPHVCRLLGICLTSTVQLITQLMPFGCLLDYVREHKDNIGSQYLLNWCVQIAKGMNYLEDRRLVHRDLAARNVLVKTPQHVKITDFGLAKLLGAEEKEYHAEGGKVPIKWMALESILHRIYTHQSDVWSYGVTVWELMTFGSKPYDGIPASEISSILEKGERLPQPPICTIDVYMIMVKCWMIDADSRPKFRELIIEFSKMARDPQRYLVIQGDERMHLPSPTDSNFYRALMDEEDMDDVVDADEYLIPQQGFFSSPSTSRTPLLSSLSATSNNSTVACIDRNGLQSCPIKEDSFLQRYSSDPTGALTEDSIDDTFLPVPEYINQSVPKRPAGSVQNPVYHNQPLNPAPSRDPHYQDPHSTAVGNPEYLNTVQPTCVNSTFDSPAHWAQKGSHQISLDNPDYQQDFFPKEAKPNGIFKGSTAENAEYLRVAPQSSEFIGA

Structure (SMILES): Cn1c(=O)c(C(=O)NNCCOCCOCC(=O)Nc2cccc3c2C(=O)N(C2CCC(=O)NC2=O)C3=O)nc2ccccc21 (centres unmarked) [Compound 16, N-(2-(2,6-dioxopiperidin-3-yl)-1,3-dioxoisoindolin-4-yl)-2-(2-(2-(2-(4-methyl-3-oxo-3,4-dihydroquinoxaline-2-carbonyl) hydrazinyl)ethoxy)ethoxy) acetamide]
- IC50 [1]: 0.1 ± 0.03 µM
- inhibition of Akt phosphorylation, in words [2]: effectively displayed inhibitory activity; also recorded: comparable to erlotinib
- fold increase of cells in G2-M phase vs control, MCF-7 [3]: 1.53 fold
- fold increase of cells in pre-G1 phase vs control, MCF-7 [3]: 4.39 fold
- cellular apoptosis, early and late, times vs control, HCT-116 [4]: ~9 times
- early apoptosis ratio, HCT-116 [4]: 5.96%
- late apoptosis ratio, HCT-116 [4]: 5.15%
- inhibition of EGFR phosphorylation, in words [5]: effectively displayed inhibitory activity
